From patent US8709420B2 (GlaxoSmithKline Intellectual Property Limited, priority 2010, dated 2014) come the findings set out here.

In the series the test system is circulating endothelial cells (CECs), CEPs, WBC. As to the kind of experiment: Viable CECs, CEPs and WBC in KHOS osteosarcoma model. Type of series: in vivo, NOD/SCID mice. The following applies: 21 days treatment. The method, then:
Procedure: Approximately 160 μl of blood was sampled in heparinized microtubes at 21st day of treatment by saphenous vein puncturing. These blood samples were stored at 4° C. until analysis. CEC/CEP measurement was done within 48 h of blood collection by flow cytometry.

As to `CC[C@@]1(O)C(=O)OCc2c1cc1n(c2=O)Cc2cc3c(CN(C)C)c(O)ccc3nc2-1` [topotecan], the “CEP, significance versus Pulse” value is listed as “* (* P < 0.05)”; the “WBC, significance versus Pulse” value was “* (* P < 0.05)”; the “White Blood Cell (WBC) levels compared to pulse TP” value is “significantly lower”; the “viable CEP levels compared to pulse TP” value was “significantly lower”. Where the note is “LDM TP 1.0 mg/kg, TP+PZ”, the “levels of viable CECs versus control” value is “significantly reduced” and the “levels of viable CEPs versus control” value is listed as “significantly reduced”. Further, where the note is “Pulse TP 15 mg/Kg”, the “levels of viable CECs versus control” value was “significantly reduced” and the “levels of viable CEPs versus control” value is given as “significantly reduced”. Moreover, for the setting “Pulse topotecan 15 mg/Kg”, the “CEC, significance versus Control” value is recorded as “* (* P < 0.05)” and the “CEP, significance versus Control” value was “* (* P < 0.05)”. Moreover, for the setting “TP (LDM 1.0 mg/kg), TP + PZ”, the “CEC, significance versus Control” value was “** (** P < 0.005)”; the “CEP, significance versus Control” value is on record as “** (** P < 0.005)”; the “WBC, significance versus Control” value is recorded as “* (* P < 0.05)”.
